One data set relates to cotton seed bugs (CSBs). Put plainly: Pheromone function assigned from the behavioral responses and VOC profiles. Type of data set: in vivo, Oxycarenus hyalinipennis. Conditions: summary statement; compounds not tested singly in the bioassays.
For data set [1], the system named is cotton seed bug (CSB), Oxycarenus hyalinipennis. Kind of data set: Field test, pheromones in plastic vials in a cotton field with high CSB population. Type of data set: in vivo. The settings on record: counted after 1 hour, compared among treatment groups including control (no treatment). The text has this:
(§1) The mean number of O. hyalinippenis in different treatment traps (captures/week) in field trials were compared by one-way analysis of variance (ANOVA) followed by Ryan-Einot-Gabriel-Welsch F test (SPSS 10.0 for Windows) following D George and P Mallery (2002, “SPSS for Windows Step by Step: A Simple Guide and Reference,” 11.0 Update. 4th Edition, Allyn & Bacon; Boston, Massachusetts, USA). All statistical comparisons were considered for significance at α=0.05.
(§2) Different pheromones or mixtures of pheromones were tested for their ability to attract CSB in the field.
Field tests were conducted by adding one or more of the identified pheromones to plastic vials and placing the vials in a cotton field with high CSB population, followed by counting the CSB caught after one (1) hour.
A field test was conducted using E2-octenal, E2-octenyl acetate, and a mixture of E2-octenal and E2-octenyl acetate. The compounds were placed in plastic vials in a cotton field with a high population of CSB. Many other bugs were also captured in the traps (numbers were not included).

For data set [2] the following is noted: cited from earlier work.
For data set [3] the following is noted: cited from earlier work. The source holds these as a separate data set.
For data set [4], the system named is cotton seed bug (CSB), Oxycarenus hyalinipennis. Kind of data set: Field test, attractants formulated in rubber septa in a cotton field with low CSB population. It is filed as in vivo. The settings on record: cotton field where CSB population was low, vs control (no treatment), listed as 4-oxo-E2-8: ald.
Text: as §1, §2
In a separate field test, a mixture of E2-octenal, 4-oxo-E2-octenal, and E2-octenyl acetate in a ratio of 1:2:7, as well as the single attractant component, 4-oxo-E2-8: ald, were tested. The compounds were formulated in rubber septa in a cotton field where the population of CSB was low. CSB formed the majority of insects caught in the traps. Trap specificity was much higher than in the test described above.

Molecules are shown by their SMILES. Entries after “also recorded” stand apart in the source; their conditions may differ.

As to `CCC/C=C/C=O` [(E)-2-Hexenal], the pheromone function result with cotton seed bugs (CSBs) is listed as “performed as CSB attraction pheromones”. As for `CCCCC/C=C/C=O` [(E)-2-Octenal], in data set [1], the “number of CSB caught in the traps” value was “not significantly different”. The pheromone function result with cotton seed bugs (CSBs) is “performed as CSB attraction pheromones; also recorded: performed as oviposition pheromones”. Moreover, the “solubility (in water)” value in data set [2] was “practically insoluble”. Further, the “basicity (based on its pKa)” value in data set [3] was “extremely weak basic (essentially neutral)”. For the compound `CCCCCCC/C=C/C=O` (single isomer, unassigned) [(E)-2-Decenal], in the data set on cotton seed bugs (CSBs), the pheromone function entry is “performed as oviposition pheromones”. In the case of `CC1=CCC2CC1C2(C)C` (stereo not drawn) [α-Pinene, 2,6,6-Trimethylbicyclo[3.1.1]hept-2-ene], the pheromone function entry with cotton seed bugs (CSBs) is listed as “performed as CSB attraction pheromones”. `CC(C)=CCC[C@]1(C)[C@H]2CC=C(C)[C@@H]1C2` [(E)-α-Bergamotene]: the pheromone function entry in the data set with cotton seed bugs (CSBs) is listed as “performed as alarm (repellent) pheromones”.

In the case of `CCCCC(=O)/C=C/C=O` [4-Oxo-(E)-2-octenal], the “CSB trapped compared with control” value in data set [4] is listed as “trapped significantly more CSB than control; also recorded: attract CSB”. On to `CCC(=O)/C=C/C=O` [4-Oxo-(E)-2-hexenal], for which the pheromone function entry in the data set with cotton seed bugs (CSBs) is listed as “performed as CSB attraction pheromones”. Same read-out and setting: the result for `C=C/C(C)=C/C/C=C(/C)CCC=C(C)C` [(Z, E)-α-Farnesene] reads “performed as alarm (repellent) pheromones”; that for `CCC/C=C/COC(C)=O` [(E)-2-Hexenyl acetate, (E)-2-hexen-1-yl acetate], “performed as CSB attraction pheromones”. Take `CCCCC/C=C/COC(C)=O` [(E)-2-Octenyl acetate]: the “number of CSB caught in the traps” value in data set [1] was “not significantly different”. The pheromone function entry with cotton seed bugs (CSBs) is given as “performed as CSB attraction pheromones; also recorded: performed as oviposition pheromones”.

These data come from patent US20250194594A1, “ATTRACTANT COTTON SEED BUG, OXYCARENUS Hyalinipennis, AND USES THEREOF” (The United States of America, as represented by the …, priority 2023, published 2025).
